Experimental data from patent US20050267133A1, “Pyrazolopyrimidines as kinase inhibitors” (priority 2002, published 2005).
pIC50: −log10 of the molar value.

Assays:
GSK-3β = GSK-3β (Homo sapiens, UniProt P49841); assay: GSK3 scintillation proximity assay (SPA) kinase assay; format: biochemical; conditions: 20 nM kinase, 2.5 uM ATP, biotinylated glycogen synthase peptide, 40 minutes at room temperature; -log IC50 in Molar; read-out: GSK-3 pIC50 (converted)
Text: The phosphorylated biotinylated peptide is then captured onto streptavidin coated scintillation proximity assay (SPA) beads from Amersham Technology, where the signal from the ^33P is amplified via the scintillant contained in the beads.
GSK-3β is commercially available or may be cloned and expressed in E. coli using standard techniques to produce soluble, active protein. The production of active protein involves purification in two steps using Metal Chelate and Ion Exchange Chromatography. Protein eluting from Ion Exchange provides >90% pure product that may then be concentrated for use in high throughput screening.
The kinase was assayed at a concentration of 20 nM final in 100 mM HEPES, pH 7.2 containing 10 mM magnesium chloride, 0.1 mg/mL bovine serum albumin, 1 mM dithiothreitol, 0.3 mg/mL heparin, 2.8 uM peptide substrate, 2.5 uM ATP, and 0.2 uCi/well [[…]-^33P]-ATP. After 40 minutes incubation at room temperature, the reaction was stopped by addition of 100 mM EDTA and […] in 100 mM HEPES, pH7.2 followed by an additional solution of diluted Streptavidin coated SPA beads in PBS, pH 7.2 to give a final concentration of 0.25 mg of beads per assay well in a 96-well microtiter plate.
10 mM stock solutions of the compounds of the invention in 100% DMSO are generated as a first step in the screening process. The second step involves the creation of dose response plates where these compounds are diluted 10-fold in 100% DMSO to 1 mM concentrations and subsequently serially diluted 3-fold in 100% DMSO across the plate by automated liquid handling such that the final top concentration of inhibitor is 0.033 mM in the 30 uL kinase assay. The third step involves the creation of the assay plates. This is achieved by transferring 1 uL of the compounds to assay plates by automated liquid handling. The fourth step is to perform the assay as described and count the resulting plates in the Packard TopCount NXT microplate scintillation and luminescence counter.
The final step is data acquisition and analysis where IC50 values are generated for each compound by normalizing curve data to the equation 100*(U1−C2)/(C1−C2) (where U1 is the cpm value, C2 is the background, and C1 is the maximum number of counts), then fitting the normalized data to the equation y=Vmax*(1−(x/(K+x))). The IC50 values were converted to pIC50 values, i.e., −log IC50 in Molar concentration. The data is expressed below in Table 1.

[1] = biological target: T1, GST-TIE2 (intracellular domains of human TIE2) (Homo sapiens, UniProt Q02763); assay: TIE-2 Enzyme Assay (TIE2-E), LANCE method; format: biochemical; conditions: preactivated GST-TIE2, 1 μM D1-15 peptide, 80 uM ATP, 30 mins at room temperature; pIC50 = -log IC50 in Molar
T1 construct: made in house
Text: The TIE-2 enzyme assay used the LANCE method (Wallac) and GST-TIE2, baculovirus expressed recombinant constructs of the intracellular domains of human TIE2 (amino acids 762-1104, GenBank Accession # L06139) tagged by GST). The method measured the ability of the purified enzymes to catalyse the transfer of the γ-phosphate from ATP onto tyrosine residues in a biotinylated synthetic peptide, D1-15 (biotin-C6-LEARLVAYEGWVAGKKKamide). This peptide phosphorylation was detected using the following procedure: for enzyme preactivation, GST-TIE2 was incubated for 30 mins at room temperature with 2 mM ATP, 5 mM MgCl2 and 12.5 mM DTT in 22.5 mM HEPES buffer (pH7.4). Preactivated GST-TIE2 was incubated for 30 mins at room temperature in 96 well plates with 1 μM D1-15 peptide, 80 uM ATP, 10 mM MgCl2, 0.1 mg/ml BSA and the test compound (diluted from a 10 mM stock in DMSO, final DMSO concentration was 2.4%) in 1 mM HEPES (pH7.4). The reaction was stopped by the addition of EDTA (final concentration 45 mM). Streptavidin linked-APC (allophycocyanin, Molecular Probe) and Europium-labeled anti-phosphorylated tyrosine antibody (Wallac) were then added at the final concentration of 17 μg/well and 2.1 μg/well, respectively. The APC signal was measured using an ARVO multilabel counter. (Wallac Berthold Japan). The percent inhibition of activity was calculated relative to blank control wells.
The concentration of test compound that inhibits 50% of activity (IC50) was interpolated using nonlinear regression (Levernberg-Marquardt) and the equation, y=Vmax (1−x/(K+x))+Y2, where “K” was equal to the IC50. The IC50 values were converted to pIC50 values, i.e., −log IC50 in Molar concentration.
Test compounds are employed in free or salt form.

GSK-3β, sequence (P49841 whole entry, species assumed): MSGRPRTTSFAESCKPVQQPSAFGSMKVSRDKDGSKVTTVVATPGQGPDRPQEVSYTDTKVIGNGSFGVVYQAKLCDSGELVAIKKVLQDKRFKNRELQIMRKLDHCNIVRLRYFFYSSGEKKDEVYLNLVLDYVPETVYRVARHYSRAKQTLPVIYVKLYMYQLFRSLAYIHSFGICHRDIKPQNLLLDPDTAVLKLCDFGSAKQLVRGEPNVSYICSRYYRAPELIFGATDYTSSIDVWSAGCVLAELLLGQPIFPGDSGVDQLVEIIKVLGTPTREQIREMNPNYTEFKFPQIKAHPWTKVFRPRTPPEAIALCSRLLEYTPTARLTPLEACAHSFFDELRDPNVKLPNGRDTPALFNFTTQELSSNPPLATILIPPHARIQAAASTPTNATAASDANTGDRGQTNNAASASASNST
T1 sequence (Q02763 762-1104): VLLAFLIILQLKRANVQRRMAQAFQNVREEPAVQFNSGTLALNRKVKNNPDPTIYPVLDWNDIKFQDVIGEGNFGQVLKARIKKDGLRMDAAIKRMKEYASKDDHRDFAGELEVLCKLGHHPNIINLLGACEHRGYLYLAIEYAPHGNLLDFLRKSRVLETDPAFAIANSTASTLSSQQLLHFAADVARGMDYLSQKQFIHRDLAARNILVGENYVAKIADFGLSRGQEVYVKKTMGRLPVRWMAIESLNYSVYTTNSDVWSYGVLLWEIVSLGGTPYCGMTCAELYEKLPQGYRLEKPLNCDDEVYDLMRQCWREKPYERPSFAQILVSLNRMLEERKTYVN

IC50 (GSK-3β)	pIC50 [1]	Compound
0.1 to 1 µM	6.00 to 7.00	OCc1cc(/C=N/Nc2ncnc3c2cnn3-c2ccccc2)ccc1O [Example 44, 4-Hydroxy-3-hydroxymethylbenzaldehyde (1-phenyl-1H-pyrazolo[3,4-d]pyrimidin-4-yl)hydrazone]
0.1 to 1 µM	6.00 to 7.00	COCCN1CCN(C(=O)c2ccc(/C=N/Nc3ncnc4c3cnn4-c3ccccc3)cc2)CC1 [Example 36, 4-{[4-(2-methoxyethyl)piperazin-1-yl]carbonyl}benzaldehyde (1-phenyl-1H-pyrazolo[3,4-d]pyrimidin-4-yl)hydrazone]
0.1 to 1 µM	5.00 to 6.00	NCCNC(=O)c1ccc(/C=N/Nc2ncnc3c2cnn3-c2ccccc2)cc1 [Example 31, N-(2-Aminoethyl)-4-{(E)-[(1-phenyl-1H-pyrazolo[3,4-d]pyrimidin-4-yl)hydrazono]methyl}benzamide]
0.1 to 1 µM	6.00 to 7.00	C(=N\Nc1ncnc2c1cnn2-c1ccccc1)/c1ccncc1 [Example 1, Isonicotinaldehyde (1-phenyl-1H-pyrazolo[3,4-d]pyrimidin-4-yl)hydrazone]
< 0.1 µM	6.00 to 7.00	OCCOc1cccc(/C=N/Nc2ncnc3c2cnn3-c2ccccc2)c1 [Example 5, 3-(2-Hydroxyethoxy)benzaldehyde (1-phenyl-1H-pyrazolo[3,4-d]pyrimidin-4-yl)hydrazone]
0.1 to 1 µM	6.00 to 7.00	CN(C)CCN1CCN(C(=O)c2ccc(/C=N/Nc3ncnc4c3cnn4-c3ccccc3)cc2)CC1 [Example 35, 4-({4-[2-(Dimethylamino)ethyl]piperazin-1-yl}carbonyl)benzaldehyde (1-phenyl-1H-pyrazolo[3,4-d]pyrimidin-4-yl)hydrazone]
0.1 to 1 µM	6.00 to 7.00	CCN(CC)CCOc1ccc(/C=N/Nc2ncnc3c2cnn3-c2ccccc2)cc1 [Example 60, 4-(2-(Diethylamino)-ethoxy)-benzaldehyde [1-(phenyl)-1H-pyrazolo[3,4-d]pyrimidin-4-yl]hydrazone]
0.1 to 1 µM	6.00 to 7.00	CN1CCN(CCCNC(=O)c2ccc(/C=N/Nc3ncnc4c3cnn4-c3ccccc3)cc2)CC1 [Example 37, N[3-(4-Methylpiperazin-1-yl)propyl]-4-{(E)-[(1-phenyl-1H-pyrazolo[3,4-d]pyrimidin-4-yl)hydrazono]methyl}benzamide]
< 0.1 µM	6.00 to 7.00	CN(C)CCNC(=O)c1ccc(/C=N/Nc2ncnc3c2cnn3-c2ccccc2)cc1 [Example 25, N-[2-(dimethylamino)ethyl]-4-{(E)-[(1-phenyl-1H-pyrazolo[3,4-d]pyrimidin-4-yl)hydrazono]methyl}benzamide]
< 0.1 µM	6.00 to 7.00	COc1cc(/C=N/Nc2ncnc3c2cnn3-c2ccccc2)cc(O)c1OC [Example 7, 3-Hydroxy-4,5-dimethoxybenzaldehyde (1-phenyl-1H-pyrazolo[3,4-d]pyrimidin-4-yl)hydrazone]
< 0.1 µM	6.00 to 7.00	O=C(NCCCN1CCOCC1)c1ccc(/C=N/Nc2ncnc3c2cnn3-c2ccccc2)cc1 [Example 27]
< 0.1 µM	6.00 to 7.00	NS(=O)(=O)c1ccc(/C=N/Nc2ncnc3c2cnn3-c2ccccc2)cc1 [Example 20, 4-{(E)-[(1-phenyl-1H-pyrazolo[3,4-d]pyrimidin-4-yl)hydrazonol]methyl}benzenesulfonamide]
1 to 10 µM	5.00 to 6.00	OCc1ccc(/C=N/Nc2ncnc3c2cnn3-c2ccccc2)o1 [Example 51, 5-Hydroxymethyl-2-furaldehyde [1-(phenyl)-1H-pyrazolo[3,4-d]pyrimidin-4-yl]hydrazone]
1 to 10 µM	6.00 to 7.00	CCOc1cc(/C=N/Nc2ncnc3c2cnn3-c2ccccc2)cc(Br)c1O [Example 46, 3-Bromo-4-hydroxy-3-ethoxybenzaldehyde (1-phenyl-1H-pyrazolo[3,4-d]pyrimidin-4-yl)hydrazone]
0.1 to 1 µM	6.00 to 7.00	COc1cc(/C=N/Nc2ncnc3c2cnn3-c2ccccc2)cc(Br)c1O [Example 48, 3-Bromo-4-hydroxy-3-methoxybenzaldehyde (1-phenyl-1H-pyrazolo[3,4-d]pyrimidin-4-yl)hydrazone]
0.1 to 1 µM	6.00 to 7.00	O=C(O)/C=C/c1ccc(/C=N/Nc2ncnc3c2cnn3-c2ccccc2)cc1 [Example 61, 4-Formylcin namic acid [1-(phenyl)-1H-pyrazolo[3,4-d]pyrimidin-4-yl]hydrazone]
< 0.1 µM	6.00 to 7.00	COc1cc(/C=N/Nc2ncnc3c2cnn3-c2ccccc2)ccc1O [Example 43, 4-Hydroxy-3-methoxybenzaldehyde (1-phenyl-1H-pyrazolo[3,4-d]pyrimidin-4-yl)hydrazone]
0.1 to 1 µM	5.00 to 6.00	Fc1ccc(/C=N/Nc2ncnc3c2cnn3-c2ccccc2)cc1 [Example 50, 4-Fluorobenzaldehyde (1-phenyl-1H-pyrazolo[3,4-d]pyrimidin-4-yl)hydrazone]
< 0.1 µM	5.00 to 6.00	[O-][n+]1ccc(/C=N/Nc2ncnc3c2cnn3-c2ccccc2)cc1 [Example 58, Pyridine-N-oxide-4-carboxaldehyde [1-(phenyl)-1H-pyrazolo[3,4-d]pyrimidin-4-yl]hydrazone]
0.1 to 1 µM	6.00 to 7.00	O=C(NCCc1c[nH]cn1)c1ccc(/C=N/Nc2ncnc3c2cnn3-c2ccccc2)cc1 [Example 29, N[2-(1H-imidazol-4-yl)ethyl]-4-{(E)-[(1-phenyl-1H-pyrazolo[3,4-d]pyrimidin-4-yl)hydrazono]methyl}benzamide]
0.1 to 1 µM	6.00 to 7.00	O=C(NCCN1CCCC1)c1ccc(/C=N/Nc2ncnc3c2cnn3-c2ccccc2)cc1 [Example 34, 4-{(E)-[(1-phenyl-1H-pyrazolo[3,4-d]pyrimidin-4-yl)hydrazono]methyl}-N-(2-pyrrolidin-1-ylethyl)benzamide]
0.1 to 1 µM	6.00 to 7.00	CN(CCc1ccccn1)C(=O)c1ccc(/C=N/Nc2ncnc3c2cnn3-c2ccccc2)cc1 [Example 30, N-Methyl-4-{(E)-[(1-phenyl-1H-pyrazolo[3,4-d]pyrimidin-4-yl)hydrazono]methyl}-N-(2-pyridin-2-ylethyl)benzamide]
< 0.1 µM	6.00 to 7.00	O=C(NCCCN1CCCC1)c1ccc(/C=N/Nc2ncnc3c2cnn3-c2ccccc2)cc1 [Example 26, 4-{(E)-[(1-phenyl-1H-pyrazolo[3,4-d]pyrimidin-4-yl)hydrazono]methyl}-N-(3-pyrrolidin-1-ylpropyl)benzamide]
0.1 to 1 µM	5.00 to 6.00	Oc1cccc(/C=N/Nc2ncnc3c2cnn3-c2ccccc2)c1 [Example 6, 3-Hydroxybenzaldehyde (1-phenyl-1H-pyrazolo[3,4-d]pyrimidin-4-yl)hydrazone]
1 to 10 µM	5.00 to 6.00	O=C(O)c1cccc(/C=N/Nc2ncnc3c2cnn3-c2ccccc2)c1 [Example 39, 3-{(E)-[(1-phenyl-1H-pyrazolo[3,4-d]pyrimidin-4-yl)hydrazono]methyl}benzoic Acid]
